# Data taken from US10968217B2, “Tetrahydropyridopyrimidines for the treatment and prophylaxis of hepatitis B virus infection” (Hoffmann-La Roche Inc., priority 2016, dated 2021).
# System: HBsAg
# Test: HBsAg assay (CLIA of secreted HBsAg in HepG2.2.15 culture supernatant)
# Type: cell-based, HBV
# Details: Hepatitis B virus, HepG2.2.15, read-out: IC50 (HBsAg assay)
# Method: HepG2.2.15 cells (Acs et al. Proc Natl Acad Sci USA, 84, (1987), 4641-4), a constitutively HBV-expressing cell line were cultured in DMEM+Glutamax-I medium (Invitrogen, Carlsbad, Calif., USA), supplemented with 10% fetal bovine serum (Invitrogen) and G418 (Invitrogen) at a final concentration of 200 mg/L and maintained in 5% CO2 at 37° C.
# HepG2.2.15 cells were seeded in duplicate into white, 96-well plates at 1.5×10^4 cells/well. The cells were treated with a three-fold serial dilution series of the compounds in DMSO. The final DMSO concentration in all wells was 1% and DMSO was used as no drug control.
# The HBsAg chemiluminescence immunoassay (CLIA) kit (Autobio Diagnostics Co., Zhengzhou, China, Catalog number: CL0310-2) was used to measure the levels of secreted HBV antigens semi-quantitatively. For the detection 50 μL/well culture supernatant was used and HBsAg was quantified using HBsAg chemiluminescence immunoassay (CLIA) kit (Autobio Diagnostics Co., Zhengzhou, China, Catalog number: CL0310-2), 50 μL of the supernatant was transferred to the CLIA assay plate and 50 μL of enzyme conjugate reagent was added into each well. The plates were sealed and gently agitated for 1 hour at room temperature. The supernatant-enzyme-mixture was discarded and wells were washed 6 times with 300 μL of PBS. The residual liquid was removed by plating the CLIA plate right side down on absorbent tissue paper. 25 μL of substrates A and B were added to each well. Luminance was measured using a luminometer (Mithras LB 940 Multimode Microplate Reader) after 10 minutes incubation. Dose-response curves were generated and the IC50 value was extrapolated by using the E-WorkBook Suite (ID Business Solutions Ltd., Guildford, UK). The IC50 was defined as the compound concentration at which HBsAg secretion was reduced by 50% compared to the no drug control.
row,Compound,IC50 [µM]
1,"CC1c2cnc(-c3ccccn3)nc2CCN1C(=O)c1ccc2cc[nH]c2c1 (stereo not shown) [Example 46, 1H-ndol-6-yl-[5-methyl-2-(2-pyridyl)-7,8-dihydro-5H-pyrido[4,3-d]pyrimidin-6-yl]methanone]",2.08
2,"O=C(c1cccc(C(F)(F)F)c1)N1CCc2nc(-c3ccccn3)ncc2C1 [Example 6, [2-(2-Pyridyl)-7,8-dihydro-5H-pyrido[4,3-d]pyrimidin-6-yl]-[3-(trifluoromethyl)phenyl]methanone]",18.7
3,"CC1c2cnc(-c3ccccn3)nc2CCN1C(=O)c1ccc(Br)s1 (stereo not shown) [Example 53, (5-Bromo-2-thienyl)-[5-methyl-2-(2-pyridyl)-7,8-dihydro-5H-pyrido[4,3-d]pyrimidin-6-yl]methanone]",0.51
4,"CC1c2cnc(-c3ncccn3)nc2CCN1C(=O)c1n[nH]c2ccccc12 (stereo not shown) [Example 63, 1H-indazol-3-yl-(5-methyl-2-pyrimidin-2-yl-7,8-dihydro-5H-pyrido[4,3-d]pyrimidin-6-yl)methanone]",0.45
5,"COc1ccc(C(=O)N2CCc3nc(-c4ccccn4)ncc3C2)nc1 [Example 29, (5-Methoxy-2-pyridyl)-[2-(2-pyridyl)-7,8-dihydro-5H-pyrido[4,3-d]pyrimidin-6-yl]methanone]",34.2
6,"Cc1ccsc1C(=O)N1CCc2nc(-c3ccccn3)ncc2C1C (stereo not shown) [Example 50, [5-Methyl-2-(2-pyridyl)-7,8-dihydro-5H-pyrido[4,3-d]pyrimidin-6-yl]-(3-methyl-2-thienyl)methanone]",27.7
7,"COc1ccc(C(=O)N2CCc3nc(-c4ccccn4)ncc3C2)cc1F [Example 7, (3-Fluoro-4-methoxy-phenyl)-[2-(2-pyridyl)-7,8-dihydro-5H-pyrido[4,3-d]pyrimidin-6-yl]methanone]",4.86
8,"O=C(c1ccc(O)c(Cl)c1)N1CCc2nc(-c3ccccn3)ncc2C1 [Example 23, (3-chloro-4-hydroxy-phenyl)-[2-(2-pyridyl)-7,8-dihydro-5H-pyrido[4,3-d]pyrimidin-6-yl]methanone]",21.2
9,"CC1c2cnc(-c3ccccn3)nc2CCN1C(=O)c1ccc(Cl)s1 (stereo not shown) [Example 42, (5-Chloro-2-thienyl)-[5-methyl-2-(2-pyridyl)-7,8-dihydro-5H-pyrido[4,3-d]pyrimidin-6-yl]methanone]",0.258
10,"COCCCOc1ccc(C(=O)N2CCc3nc(-c4ccccn4)ncc3C2)cc1F [Example 15, [3-Fluoro-4-(3-methoxypropoxy)phenyl]-[2-(2-pyridyl)-7,8-dihydro-5H-pyrido[4,3-d]pyrimidin-6-yl]methanone]",4.89
11,"COCCOc1ccc(C(=O)N2CCc3nc(-c4ccccn4)ncc3C2)cc1F [Example 14, [3-Fluoro-4-(2-methoxyethoxy)phenyl]-[2-(2-pyridyl)-7,8-dihydro-5H-pyrido[4,3-d]pyrimidin-6-yl]methanone]",20
12,"O=C(c1cc(F)cc(F)c1)N1CCc2nc(-c3ccccn3)ncc2C1 [Example 37, (3,5-Difluorophenyl)-[2-(2-pyridyl)-7,8-dihydro-5H-pyrido[4,3-d]pyrimidin-6-yl]methanone]",25.8
13,"O=C(c1ccccc1)N1CCc2nc(-c3ccccn3)ncc2C1 [Example 4, Phenyl-[2-(2-pyridyl)-7,8-dihydro-5H-pyrido[4,3-d]pyrimidin-6-yl]methanone]",24.3
14,"COc1ccc2[nH]nc(C(=O)N3CCc4nc(-c5ncccn5)ncc4C3C)c2c1 (stereo not shown) [Example 66, (5-Methoxy-1H-indazol-3-yl)-(5-methyl-2-pyrimidin-2-yl-7,8-dihydro-5H-pyrido[4,3-d]pyrimidin-6-yl)methanone]",1.36
15,"COc1cc(Cl)cc(C(=O)N2CCc3nc(-c4ccccn4)ncc3C2)c1 [Example 18, (3-Chloro-5-methoxy-phenyl)-[2-(2-pyridyl)-7,8-dihydro-5H-pyrido[4,3-d]pyrimidin-6-yl]methanone]",10
16,"COc1cc(F)cc(C(=O)N2CCc3nc(-c4ccccn4)ncc3C2)c1 [Example 38, (3-Fluoro-5-methoxy-phenyl)-[2-(2-pyridyl)-7,8-dihydro-5H-pyrido[4,3-d]pyrimidin-6-yl]methanone]",21.7
17,"O=C(c1ccc(Cl)cc1)N1CCc2nc(-c3ccccn3)ncc2C1 [Example 5, (4-Chlorophenyl)-[2-(2-pyridyl)-7,8-dihydro-5H-pyrido[4,3-d]pyrimidin-6-yl]methanone]",11.4

row,Compound,IC50 [µM]
1,"COCCCOc1ccc(C(=O)N2CCc3nc(-c4ncccn4)ncc3C2C)cc1Cl (stereo not shown) [Example 40, [3-Chloro-4-(3-methoxypropoxy)phenyl]-(5-methyl-2-pyrimidin-2-yl-7,8-dihydro-5H-pyrido[4,3-d]pyrimidin-6-yl)methanone]",1.93
2,"Cc1ccc(C(=O)N2CCc3nc(-c4ccccn4)ncc3C2C)s1 (stereo not shown) [Example 43, [5-Methyl-2-(2-pyridyl)-7,8-dihydro-5H-pyrido[4,3-d]pyrimidin-6-yl]-(5-methyl-2-thienyl)methanone]",0.326
3,"COc1ccc(C(=O)N2CCc3nc(-c4ccccn4)ncc3C2C)cc1OC (single isomer, unassigned; (-)) [Example 34, (−)-(3,4-Dimethoxyphenyl)-[5-methyl-2-(2-pyridyl)-7,8-dihydro-5H-pyrido[4,3-d]pyrimidin-6-yl]methanone]",1.81
4,"CC1c2cnc(-c3ncccn3)nc2CCN1C(=O)c1nn(Cc2ccccc2)c2ccccc12 (stereo not shown) [Example 65, (1-Benzylindazol-3-yl)-(5-methyl-2-pyrimidin-2-yl-7,8-dihydro-5H-pyrido[4,3-d]pyrimidin-6-yl)methanone]",0.39
5,"CC1c2cnc(-c3ccccn3)nc2CCN1C(=O)c1cncs1 (stereo not shown) [Example 54, [5-Methyl-2-(2-pyridyl)-7,8-dihydro-5H-pyrido[4,3-d]pyrimidin-6-yl]-thiazol-5-yl-methanone]",11.5
6,"Cc1ccc(C(=O)N2CCc3nc(-c4ccccn4)ncc3C2)nc1 [Example 27, (5-Methyl-2-pyridyl)-[2-(2-pyridyl)-7,8-dihydro-5H-pyrido[4,3-d]pyrimidin-6-yl]methanone]",24.2
7,"Cc1cc(C(=O)N2CCc3nc(-c4ccccn4)ncc3C2)ccc1F [Example 20, (4-Fluoro-3-methyl-phenyl)-[2-(2-pyridyl)-7,8-dihydro-5H-pyrido[4,3-d]pyrimidin-6-yl]methanone]",7.85
8,"COc1ccc(C(=O)N2CCc3nc(-c4ccccn4)ncc3C2)cn1 [Example 36, (6-Methoxy-3-pyridyl)-[2-(2-pyridyl)-7,8-dihydro-5H-pyrido[4,3-d]pyrimidin-6-yl]methanone]",3.97
9,"CC1c2cnc(-c3ncccn3)nc2CCN1C(=O)c1n[nH]c2ccc(F)cc12 (stereo not shown) [Example 64, (5-Fluoro-1H-indazol-3-yl)-(5-methyl-2-pyrimidin-2-yl-7,8-dihydro-5H-pyrido[4,3-d]pyrimidin-6-yl)methanone]",0.21
10,"CC1c2cnc(-c3ccccn3)nc2CCN1C(=O)c1ccsc1 (stereo not shown) [Example 44, [5-Methyl-2-(2-pyridyl)-7,8-dihydro-5H-pyrido[4,3-d]pyrimidin-6-yl]-(3-thienyl)methanone]",2.46
11,"CC1c2cnc(-c3ccccn3)nc2CCN1C(=O)c1nccn1C (stereo not shown) [Example 57, (1-Methylimidazol-2-yl)-[5-methyl-2-(2-pyridyl)-7,8-dihydro-5H-pyrido[4,3-d]pyrimidin-6-yl]methanone]",3.23
12,"O=C(c1ccc(F)cc1)N1CCc2nc(-c3ccccn3)ncc2C1 [Example 8, (4-Fluorophenyl)-[2-(2-pyridyl)-7,8-dihydro-5H-pyrido[4,3-d]pyrimidin-6-yl]methanone]",16.4
13,"Cc1ncoc1C(=O)N1CCc2nc(-c3ccccn3)ncc2C1C (stereo not shown) [Example 45, (4-Methyloxazol-5-yl)-[5-methyl-2-(2-pyridyl)-7,8-dihydro-5H-pyrido[4,3-d]pyrimidin-6-yl]methanone]",1.43
14,"CCC1c2cnc(-c3ccccn3)nc2CCN1C(=O)c1ccc(OC)c(OC)c1 (single isomer, unassigned; (-)) [Example 35, (−)-(3,4-Dimethoxyphenyl)-[5-ethyl-2-(2-pyridyl)-7,8-dihydro-5H-pyrido[4,3-d]pyrimidin-6-yl]methanone]",2.72
15,"O=C(c1ccc(O)c(F)c1)N1CCc2nc(-c3ccccn3)ncc2C1 [Example 12, (3-Fluoro-4-hydroxy-phenyl)-[2-(2-pyridyl)-7,8-dihydro-5H-pyrido[4,3-d]pyrimidin-6-yl]methanone]",21.4
16,"O=C(c1ccc(F)c(F)c1)N1CCc2nc(-c3ccccn3)ncc2C1 [Example 10, (3,4-Difluorophenyl)-[2-(2-pyridyl)-7,8-dihydro-5H-pyrido[4,3-d]pyrimidin-6-yl]methanone]",26.2
17,"CC1c2cnc(-c3ccccn3)nc2CCN1C(=O)c1ccc2[nH]ncc2c1 (stereo not shown) [Example 47, 1H-indazol-5-yl-[5-methyl-2-(2-pyridyl)-7,8-dihydro-5H-pyrido[4,3-d]pyrimidin-6-yl]methanone]",2.47
